The record followed here is patent US9408828B2, “(+)-3′-angeloyloxy-4′-keto-3′,4′-dihydroseselin for treating inflammation” (Hong Kong Baptist University, priority 2014, dated 2016).

Test [1] relates to IL-6. As to the kind of experiment: ELISA of IL-6 in colon tissue, DSS-induced colitis. Type of test: in vivo, C57BL/6 mice. To be noted: compared with the DSS treatment group. Here is the method: (§1) Colon levels of cytokines are assayed using commercially available ELISA kits. Briefly, colon samples are homogenized in phosphate buffer containing 0.05% Tween-20, 0.1 mM phenylmethylsulfonyl fluoride, 0.1 mM benzethonium chloride, 10 mM EDTA, and 20 IU aprotinin A. The homogenates are centrifuged at 16000 g at 4° C. for 15 min, and the supernatants are collected for the determination of levels of the cytokines, IL-6, IL-4, TNF-α, and IFN-γ, according to the manufacturer's protocols. The amount of protein in each sample is measured by the Bradford method, using bovine serum albumin as a standard. The levels of each cytokine are evaluated in each sample and expressed in […].
(§2) Colitis is induced in all groups except the control group. Pd-Ib and sulfasalazine are administered to mice from day 6 to day 12. On day 13, the mice are sacrificed, Data are expressed as mean±SEM, n=8 (*p<0.05, **p<0.01, ***p<0.001, compared with DSS model group).
In general terms: In an ELISA, binding on a coated surface is turned into a signal by an enzyme label.

The test system of test [2] is NF-κB p65. As to the kind of experiment: Immunofluorescence staining of NF-κB nuclear translocation. Type of test: cell-based, murine. To be noted: 5-20 μg/mL pretreatment 2 hours, LPS 1 μg/mL 20 hours. Here is the method:
Data are derived from three independent experiments. Original magnification, 40×.
Raw-Blue cells are cultured (20×10^4 cells/well) on glass coverslips and incubated for 24 hours. Cells are pretreated with various concentrations (5-20 μg/mL) of Pd-Ib for 2 hours. Then treated with LPS (1 μg/mL) for 20 hours. Subsequently, the coverslips are rinsed twice with PBS, and cells are fixed in 4% paraformaldehyde (PFA) in PBS at room temperature for 15 minutes. Cellular and nuclear membranes of the macrophages are permeabilized by treatment with 3% Triton X-100 in PBS for 15 minutes. After being blocked with 3% bovine serum albumin (BSA) in PBS for 1 hour, the cells is incubated with primary antibody in 3% BSA/PBS (1:500 dilution) at 4° C. overnight. After washing with PBS, the cells are incubated with the red-conjugated secondary antibody (1:500 dilution) in 3% BSA/PBS at room temperature for 1 hour and finally washed again for three time with PBS. Then, counter-staining is performed with DAPI (1:1,000 dilution) in 3% BSA/PBS nucleus with for 10 minutes. The cells are washed for three times with PBS, and then anti-fade mounting medium is added. Samples are observed under a fluorescence microscope.

Test [3] relates to nitric oxide (NO) production in LPS-stimulated RAW-Blue cells. The test is described as follows: Nitric oxide production determination (Griess reagent). Type of test: cell-based, murine. To be noted: Mus musculus, LPS 1 μg/mL 20 hours. Here is the method:
After macrophages are treated with 1 μg/mL of LPS in absence or presence various concentrations of Pd-Ib (5, 10, 20 μg/mL) for 20 hours, the mRNA levels of iNOS (A), TNF-α (B) and IL-1β (C) are determined by real time PCR, while the production of NO (D) is determined by Griess reagent. Data are derived from three independent experiments and presented as mean±SEM, “con” stands for the vehicle control group. ^#Compared with control group. *P<0.05, **P<0.01 and ***P<0.001 are compared with LPS-alone group.
Nitric oxide (NO) production is indirectly assessed by measuring the nitrite levels in the cultured medium determined by a colorimetric method based on the Griess reagent and sodium nitrite as a standard substance. The cells are pretreated with various concentrations of Pd-Ib (5-20 μg/mL). Two hours later, cells are incubated for another 20 hours in the presence of LPS (1 μg/mL) at 37° C. Then, 100 μL of each supernatant is mixed with the equal volume of Griess reagent. The samples are incubated at room temperature for 15 min. The optical densities are measured at 540 nm with a micro-plate reader and nitrite concentration is determined using a standard curve generated with known concentrations of sodium nitrite.
A general note: Nitrite, measured by Griess reagent, commonly stands in for NO production.

Test [4] deals with IFN-γ. The test is described as follows: ELISA of IFN-γ in colon tissue, DSS-induced colitis. Type of test: in vivo, C57BL/6 mice. To be noted: compared with the DSS treatment group. Here is the method:
as §1, §2

The test system of test [5] is iNOS. As to the kind of experiment: Western blot of iNOS protein in LPS-stimulated RAW-Blue cells. Type of test: cell-based, murine. Particulars: LPS 1 μg/mL, 5, 10, 20 μg/mL, 20 h. Here is the method: (§3) Data are derived from three independent experiments and presented as mean±SEM. ^#Compared with control group. *P<0.05, **P<0.01 and ***P<0.001 are compared with LPS-alone group.
(§4) After Raw-Blue cells are treated with LPS and Pd-Ib, whole cell extract is prepared with lysis buffer [1% Triton X-100, 0.1% SDS, 0.5% deoxycholate, 1 mM EDTA, 20 mM Tris (pH 7.4), 150 mM NaCl, 10 mM NaF, 1 mM Na3VO4, 0.1 mM phenylmethylsulfonyl fluoride and one protease inhibitor cocktail tablet (Roche, USA)]. Total protein concentration is measured using a protein assay kit, followed by centrifugation at 13,500 rpm for 15 minutes at 4° C., then 10-25 μg of protein from the supernatants is then separated on 10% sodium dodecylsulphate-polyacrylamide gel (SDS-PAGE) and transferred on to polyvinylidene difluoride membranes. After blocking with 5% skim milk powder in Tris-buffered saline-Tween (TBST; 50 mM Tris, 150 mM NaCl, pH 7.4; 0.01% Tween-20) for 1 hour at room temperature, the membrane is then incubated with primary antibody (1:5,000 dilution) in 5% skim milk in TBST overnight at 4° C. […] The membrane is rewashed (TBST; 3×10 min), and the immune-reactive proteins are detected by enhanced chemiluminescence using X-ray film and ECL reagent. The protein bands are quantified by measuring the relative intensity compared to the control using Image J Software (version 4.1.7, NIH, USA).
(In general: Immunoblotting shows a protein as a band on a membrane.)

Test [6] deals with COX-2. As to the kind of experiment: Western blot of COX-2 protein in LPS-stimulated RAW-Blue cells. Type of test: cell-based, murine. To be noted: LPS 1 μg/mL, 5, 10, 20 μg/mL, 20 h. Here is the method:
as §3, §4

One may read the inhibition as the change of the read-out against control, counted positive when it falls. A higher inhibition goes with a strong effect. As to `C/C=C(\C)C(=O)OC1C(=O)c2c(ccc3ccc(=O)oc23)OC1(C)C` (single isomer, unassigned; (+)) [Pd-Ib, (+)-3′-Angeloyloxy-4′-keto-3′,4′-dihydroseselin], the “production of IL-6 in colon tissue” value in test [1] is “greatly reduces the production”. In test [2], the p65 nuclear translocation result is “significantly inhibits the p65 nuclear translocation”. Besides, the inhibition at 5 µg/mL in test [3] (5 μg/mL) turned out to be 17.6 ± 2.96%. This compound also displayed an inhibition at 10 µg/mL in test [3] (10 μg/mL) of 29.8 ± 1.34%. For the same compound, at 20 µg/mL the inhibition in test [3] (20 μg/mL) was 55.5 ± 1.15%. Also, in test [4], the “production of IFN-γ in colon tissue” value was “greatly reduces the production”. Also, in test [5], the iNOS protein level result is “strongly down-regulates”. For the same compound, the COX-2 protein level entry in test [6] is recorded as “strongly down-regulates”.
